{"source": "patent US9610274B2", "about": "“Methods for treating bipolar disorder” (priority 2010, dated 2017)", "key": {"mice": {"tested_on": "mice", "assay": "Forced swimming test in mice", "format": "in vivo", "settings": "for ED50: Mus musculus"}, "rats": {"tested_on": "rats", "assay": "Forced swimming test in rats", "format": "in vivo", "settings": "4 hours post-treatment", "protocol": "Male CD-1 mice (16-24 g) and male Wistar rats (90-125 g) were utilized in these experiments. The test compound (10, 15 and 30 mg/kg) was dissolved in physiological saline (0.9%) and administered orally in a volume of 1 mL/100 g body weight.\nMice and rats were placed in glass cylinders of 1000 ml beakers (height 14 cm, diameter 11.5 cm) and 4000 ml beakers (height 24.5 cm, diameter 18.0 cm), respectively, containing water (25 degrees Celsius) up to a height of 9.0 cm for mice and 19.0 cm for rats. […] Immobility was defined as lack of movement, such as floating in the water with little or no movement of hind legs. Duration of immobility was timed with a stopwatch and recorded. In some experiments, mice or rats were allowed to swim for 6 or 10 minutes, respectively, one day prior to the forced swimming experiment.\nIn the single dose test, mice or rats were given test compound or 0.9% NaCl and placed in glass cylinders 1 hour or 4 hours post-treatment, respectively. In the multiple dose experiments, mice were dosed twice a day for 3 days and given an additional dose on Day 4. In addition, the mice were placed in the glass cylinders containing water at 25 degrees Celsius and allowed to swim for six minutes on Day 3. Statistical evaluation was performed using a computer program (The Pharmacological Calculation System of Tallarida and Murray (#425475-04-7-1992)) based on probit analysis. Statistical significance was determined using Student's t-test at a P value of <0.05."}, "[1]": {"target": "T1, hDAT (human dopamine transporter) (Homo sapiens, UniProt Q01959)", "T1 construct": "expressed in transfected cells; host or cells: HEK293 (ATCC), puromycin-selected clonal cells", "T1 sequence (Q01959 whole entry)": "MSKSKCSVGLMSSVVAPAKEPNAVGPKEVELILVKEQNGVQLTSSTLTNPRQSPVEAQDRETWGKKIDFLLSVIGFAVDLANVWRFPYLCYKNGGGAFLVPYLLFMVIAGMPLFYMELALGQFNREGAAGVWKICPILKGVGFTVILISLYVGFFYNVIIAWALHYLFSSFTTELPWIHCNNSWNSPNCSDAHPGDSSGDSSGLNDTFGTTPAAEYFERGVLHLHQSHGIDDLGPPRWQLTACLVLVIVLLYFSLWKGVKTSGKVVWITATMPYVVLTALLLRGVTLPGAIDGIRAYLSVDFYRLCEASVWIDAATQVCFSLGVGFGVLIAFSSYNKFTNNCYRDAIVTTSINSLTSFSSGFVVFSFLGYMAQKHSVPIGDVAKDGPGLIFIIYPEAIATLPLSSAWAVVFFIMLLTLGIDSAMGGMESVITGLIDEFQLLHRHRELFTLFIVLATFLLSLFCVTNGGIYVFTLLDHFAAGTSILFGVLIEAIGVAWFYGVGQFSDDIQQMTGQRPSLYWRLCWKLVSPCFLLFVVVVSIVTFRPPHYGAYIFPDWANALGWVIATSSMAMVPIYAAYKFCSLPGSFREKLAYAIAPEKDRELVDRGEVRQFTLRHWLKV", "assay": "Inhibition of [125I]RTI-55 binding to hDAT in HEK293 cell membranes", "settings": "HEK-hDAT cells; mean ± SEM"}, "[2]": {"target": "T2, hSERT (human serotonin transporter) (Homo sapiens, UniProt P31645)", "T2 construct": "expressed in transfected cells; host or cells: HEK293 (ATCC), puromycin-selected clonal cells", "T2 sequence (P31645 whole entry)": "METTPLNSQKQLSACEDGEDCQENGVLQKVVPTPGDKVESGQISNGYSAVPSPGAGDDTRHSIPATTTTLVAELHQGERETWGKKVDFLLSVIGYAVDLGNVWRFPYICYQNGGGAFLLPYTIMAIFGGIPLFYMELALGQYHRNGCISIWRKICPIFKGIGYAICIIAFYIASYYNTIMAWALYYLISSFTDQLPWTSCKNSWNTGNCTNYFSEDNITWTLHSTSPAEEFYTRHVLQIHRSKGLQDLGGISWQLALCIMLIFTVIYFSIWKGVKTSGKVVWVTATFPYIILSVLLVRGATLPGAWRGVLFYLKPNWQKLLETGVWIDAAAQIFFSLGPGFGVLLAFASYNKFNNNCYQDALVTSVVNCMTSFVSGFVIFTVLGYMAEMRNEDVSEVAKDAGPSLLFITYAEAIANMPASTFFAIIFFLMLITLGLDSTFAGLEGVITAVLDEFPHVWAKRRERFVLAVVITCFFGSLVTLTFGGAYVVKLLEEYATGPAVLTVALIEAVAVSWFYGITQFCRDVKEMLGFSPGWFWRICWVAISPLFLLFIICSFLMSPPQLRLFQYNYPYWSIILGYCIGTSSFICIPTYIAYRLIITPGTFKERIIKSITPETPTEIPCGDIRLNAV", "assay": "Inhibition of [125I]RTI-55 binding to hSERT in HEK293 cell membranes", "settings": "HEK-hSERT cells; mean ± SEM"}, "[3]": {"target": "T2, hSERT (human serotonin transporter)", "assay": "Inhibition of [3H]serotonin uptake in HEK-hSERT cells", "format": "cell-based"}, "[4]": {"tested_on": "homozygous mutant dopamine transporter knockout (KO) mice", "assay": "Spontaneous activity in the open field, dopamine transporter KO mice", "format": "in vivo", "protocol": "Male and female wild-type and homozygous mutant dopamine transporter KO mice (n˜10 mice/genotype/agent; produced by in vivo homologous recombination and bred at Duke University Medical Center, Durham, N.C.) were tested for spontaneous activity in the open field following a single injection of the vehicle or compound. […] All drugs were given in a volume of 5 mL/kg. Animals were returned to the open field for an additional 90 min. Spontaneous activity was evaluated in an automated Omnitech Digiscan apparatus (Accuscan Instruments, Columbus, Ohio). Activity was summated at 5 min intervals over the 2 h period of testing. Horizontal activity or locomotion was measured in terms of the total distance covered in cm, vertical activity or rearing was expressed in terms of the total numbers of vertical beam breaks, and stereotypy was quantified in terms of repetitive breaks of a given beam or beams with intervals of less than 1 sec. For the analyses, 10 WT and 10 KO mice were run in each of the treatment groups with approximately equal numbers of males and females assigned to each group. Data were analyzed by the Statistical Package for Social Sciences programs (version 11.0 for Windows; SPSS Science, Chicago, Ill.). The results for each dependent variable were analyzed by repeated analyses of variance (RMANOVA) for within subjects effects (group differences over time) and between-subjects effects (tests of main effects and interactions). Bonferroni corrected pair-wise comparisons were used as the post-hoc tests. A p <0.05 was considered significant."}, "[5]": {"tested_on": "adult human subjects with moderate or severe major depression without psychotic features", "assay": "Randomized double-blind placebo- and active-controlled 6-week study in major depression", "format": "in vivo", "settings": "for MADRS response rate / MADRS remission rate: Week 6; for MADRS response rate: >50% improvement in MADRS total score; for MADRS remission rate: MADRS total score less than 9; for 3 Atypical items of HAM-D 31, mean result / CGI-S score, mean result / MADRS core mood subscale, mean result / MADRS sadness (Items 1 + 2), mean result / MADRS total score (primary), mean result / MADRS total score, mean result: change from baseline at Week 6; for ABCD questionnaire items with statistically significant superiority to placebo: post hoc analyses, of 51 items, U.S. sites", "protocol": "The primary objective of this study was to determine the efficacy of 2 target doses of test compound (200 and 400 mg/day) in comparison with placebo during 6 weeks of treatment in adult human subjects with moderate or severe major depression without psychotic features. An active comparator (paroxetine) was included to assist in distinguishing a negative study from a failed study. In addition, an exit interview was intended to gather information on unexpected benefits of the test compound in order to refine the clinical development program. […] In addition, positive effects of the test compound on ratings of physical energy/fitness, reduction in sadness or depression and mental energy or motivation.\nThis was a randomized, double-blind, parallel-group, active, and placebo-controlled, multicenter study conducted in the U.S. (23 centers) and Canada (4 centers). There were 2 phases: a pretreatment phase (screening/washout and a baseline visit) and a 6-week, double-blind treatment phase. Paroxetine, a positive control, was included to evaluate assay sensitivity. After washout (if needed) of prohibited substances, subjects were randomly assigned (1:1:1:1) to receive the test compound titrated to a target dose of 200 mg/day or 400 mg/day, matching placebo, or a fixed dose (20 mg/day) of paroxetine. Study drug was given twice daily for 6 weeks. Efficacy and safety were assessed weekly during the double-blind phase. Subjects completing the study underwent an Exit Interview (“Your Health and Well-Being”) and completed an Assessment of Benefits of Clinical-trial Drug-treatment (ABCD) questionnaire (U.S. sites only)."}, "[6]": {"settings": "Per-Protocol (LOCF), TC 200 mg/day"}, "[7]": {"settings": "Per-Protocol (LOCF), TC 400 mg/day"}}, "note": "Entries after “also recorded” stand apart in the source; their conditions may differ. Where two headings read alike, the source gives them in different places.", "data": [{"smiles": "NC(=O)OC[C@H](N)Cc1ccccc1", "note": "[test compound, O-carbamoyl-(D)-phenylalaninol]", "values": [{"measurement": "ED50", "setting": "mice; multiple dosing PO (twice a day for 3 days plus a dose on Day 4), read-out: ED50 (reduction of mean immobility time)", "result": 5.5, "unit": "mg/kg"}, {"measurement": "ED50", "setting": "mice; read-out: ED50 (50% reduction in mean immobility time), single dose PO, 1 hour post-treatment", "result": 16.6, "unit": "mg/kg"}, {"measurement": "mean duration of immobility", "setting": "mice; multiple dosing 3 mg/kg PO, control 85 sec", "result": 63, "unit": "s"}, {"measurement": "mean duration of immobility", "setting": "mice; multiple dosing 5 mg/kg PO, control 136 sec, significant", "result": 73, "unit": "s"}, {"measurement": "mean duration of immobility", "setting": "mice; multiple dosing 8 mg/kg PO, control 114 sec, significant", "result": 39, "unit": "s"}, {"measurement": "mean duration of immobility", "setting": "mice; single dose 10 mg/kg PO, control 131 sec", "result": 101, "unit": "s"}, {"measurement": "mean duration of immobility", "setting": "mice; single dose 15 mg/kg PO, control 154 sec, significant", "result": 80, "unit": "s"}, {"measurement": "mean duration of immobility", "setting": "mice; single dose 30 mg/kg PO, control 132 sec, significant", "result": 30, "unit": "s"}, {"measurement": "mean duration of immobility", "setting": "rats; 10 mg/kg, control 74 sec, not statistically significant", "result": 62, "unit": "s"}, {"measurement": "mean duration of immobility", "setting": "rats; 15 mg/kg, control 65 sec, not statistically significant", "result": 39, "unit": "s"}, {"measurement": "mean duration of immobility", "setting": "rats; 30 mg/kg, control 38 sec, significant", "result": 9, "unit": "s"}, {"measurement": "ED50", "setting": "rats; Rattus norvegicus, single dose PO, read-out: ED50 (reduction of mean immobility time)", "result": 18.5, "unit": "mg/kg"}, {"measurement": "Hill coefficient", "setting": "[1]", "result": "−0.77 ± 0.12"}, {"measurement": "Hill coefficient", "setting": "[2]", "result": "−2.28 ± 0.05"}, {"measurement": "IC50", "setting": "[3]", "result": "> 100", "unit": "µM"}, {"measurement": "spontaneous activity (locomotor, rearing and stereotypical activities)", "setting": "[4]; single SC injection, test compound 10, 30, 100 mg/kg, amphetamine 2 mg/kg, 90 min post-injection, relative to vehicle", "result": "selectively reduced activity of the KO mice in a dose-dependent manner; also recorded: reduced activities in a dose-dependent fashion"}, {"measurement": "spontaneous activity compared with amphetamine", "setting": "[4]; test compound 100 mg/kg SC versus amphetamine 2 mg/kg SC", "result": "suppressed activities more efficiently than amphetamine"}, {"measurement": "MADRS response rate", "setting": "[5]; ITT (LOCF), TC 200 mg/day", "result": 36, "unit": "%"}, {"measurement": "MADRS response rate", "setting": "[5]; ITT (LOCF), TC 400 mg/day", "result": 41, "unit": "%"}, {"measurement": "MADRS remission rate", "setting": "[5]; ITT (LOCF), TC 200 mg/day", "result": 15, "unit": "%"}, {"measurement": "MADRS remission rate", "setting": "[5]; ITT (LOCF), TC 400 mg/day", "result": 19, "unit": "%"}, {"measurement": "3 Atypical items of HAM-D 31, mean result", "setting": "[5]; ITT (LOCF), TC 200 mg/day", "result": "−0.4"}, {"measurement": "CGI-S score, mean result", "setting": "[5]; ITT (LOCF), TC 200 mg/day", "result": "−1.2"}, {"measurement": "MADRS core mood subscale, mean result", "setting": "[5]; ITT (LOCF), TC 200 mg/day", "result": "−8.6"}, {"measurement": "MADRS sadness (Items 1 + 2), mean result", "setting": "[5]; ITT (LOCF), TC 200 mg/day", "result": "−3.2"}, {"measurement": "MADRS total score (primary), mean result", "setting": "[5]; ITT (LOCF), TC 200 mg/day", "result": "−12.1"}, {"measurement": "3 Atypical items of HAM-D 31, mean result", "setting": "[5]; ITT (LOCF), TC 400 mg/day", "result": "−0.8"}, {"measurement": "CGI-S score, mean result", "setting": "[5]; ITT (LOCF), TC 400 mg/day", "result": "−1.3"}, {"measurement": "MADRS core mood subscale, mean result", "setting": "[5]; ITT (LOCF), TC 400 mg/day", "result": "−8.7"}, {"measurement": "MADRS sadness (Items 1 + 2), mean result", "setting": "[5]; ITT (LOCF), TC 400 mg/day", "result": "−3.4"}, {"measurement": "MADRS total score (primary), mean result", "setting": "[5]; ITT (LOCF), TC 400 mg/day", "result": "−12.4"}, {"measurement": "superiority to placebo on the primary endpoint (change from baseline at Week 6 in MADRS total score)", "setting": "[5]; ITT (LOCF), test compound 200 mg and 400 mg, paroxetine 20 mg/day", "result": "Neither the 200-mg nor the 400-mg dose of the test compound was statistically significantly superior to placebo"}, {"measurement": "MADRS response rate", "setting": "[5]; [6]", "result": 40, "unit": "%"}, {"measurement": "MADRS response rate", "setting": "[5]; [7]", "result": 50, "unit": "%"}, {"measurement": "MADRS remission rate", "setting": "[5]; [6]", "result": 20, "unit": "%"}, {"measurement": "MADRS remission rate", "setting": "[5]; [7]", "result": 29, "unit": "%"}, {"measurement": "CGI-S score, mean result", "setting": "[5]; [6]", "result": "−1.5"}, {"measurement": "MADRS total score, mean result", "setting": "[5]; [6]", "result": "−14.8"}, {"measurement": "CGI-S score, mean result", "setting": "[5]; [7]", "result": "−1.6"}, {"measurement": "MADRS total score, mean result", "setting": "[5]; [7]", "result": "−15.0"}, {"measurement": "superiority to placebo on the primary endpoint, men", "setting": "[5]; men, test compound 200 mg", "result": "nominally statistically significant superiority to placebo"}, {"measurement": "ABCD questionnaire items with statistically significant superiority to placebo", "setting": "[5]; test compound 200 mg", "result": 14, "unit": "items"}, {"measurement": "ABCD questionnaire items with statistically significant superiority to placebo", "setting": "[5]; test compound 400 mg", "result": 8, "unit": "items"}, {"measurement": "superiority to placebo on the primary endpoint, women", "setting": "[5]; women, test compound 400 mg", "result": "statistically significant superiority to placebo"}]}]}
